According to patent US8283352B2, “Solubilization preparation” (Dainippon Sumitomo Pharma Co., Ltd., priority 2005, dated 2012):
Counter-ions that a name gives are not always drawn.

Experiments:
Type in all cases: physicochemical
[1] = Solubility of lurasidone or a free form thereof in additives (Table 1), visual check; conditions: for solubility at 30 min: thermodynamic from solid
Method: Solid-type additives were studied in 10% aqueous solutions thereof and liquid-type ones were studied in 100% solutions thereof. Specifically, to 10% aqueous solution of solid-type additive or to 100% solution of liquid-type one was added lurasidone or a free form thereof so that a concentration thereof was 10 mg/mL, and the mixture was promoted to be dissolved by an operation such as stirring, heating or sonication. It was confirmed by visual check 30 minutes after the operation whether the mixture was perfectly dissolved. In case that the mixture was perfectly dissolved in a concentration of 10 mg/mL, another amount of lurasidone or a free form thereof was added to be evaluated.

Solubility in water = assay: Solubility in water
[2] = Storage stability of 30 mg/mL solutions, residual ratio by reverse phase HPLC (Table 2); conditions: aqueous solutions using benzyl alcohol, propylene glycol, N,N-dimethylacetamide and lactic acid; one-month storage at 60° C. and 40° C.
Method: Solutions comprising lurasidone and a hydrochloride thereof in a concentration of 30 mg/mL were prepared in formulations in Table 2 to be stored under warming conditions (60° C. and 40° C.). After one-month storage, a residual ratio of principal agent was measured by using reverse phase HPLC. […] In other words, the present invention can provide a solution-type preparation with high stability wherein lurasidone and a free form thereof are solubilized at high concentrations.
Column: YMC-Pack AM-312 (5 μm, 6.0 mmφ×150 mm, manufactured by YMC Co., Ltd.)
Detector: ultraviolet absorptiometer (measured wavelength: 230 nm)
Column temperature: constant temperature around 25° C.
Solution A: 0.025% aqueous trifluoroacetic acid solution/acetonitrile mixture (4:1)
Solution B: 0.025% trifluoroacetic acid in acetonitrile solution

O=C1[C@@H]2[C@H]3CC[C@H](C3)[C@@H]2C(=O)N1C[C@@H]1CCCC[C@H]1CN1CCN(c2nsc3ccccc23)CC1 [Lurasidone, N-[4-[4-(1,2-benzisothiazol-3-yl)-1-piperazinyl]-(2R,3R)-2,3-tetramethylene-butyl]-(1′R,2′S,3′R,4′S)-2,3-bicyclo[2,2,1]heptanedicarboxyimide hydrochloride]
solubility at 30 min ([1]; aqueous buffer, additive No. 8: Sodium hydrogen carbonate): < 10000 µg/mL
solubility at 30 min ([1]; aqueous with cosolvent or surfactant or cyclodextrin, additive No. 1: Citric acid): < 10000 µg/mL
solubility at 30 min ([1]; aqueous with cosolvent or surfactant or cyclodextrin, additive No. 2: Sodium citrate): < 10000 µg/mL
solubility at 30 min ([1]; aqueous with cosolvent or surfactant or cyclodextrin, additive No. 3: L-Aspartic acid): < 10000 µg/mL
solubility at 30 min ([1]; aqueous with cosolvent or surfactant or cyclodextrin, additive No. 4: L-Arginine): < 10000 µg/mL
solubility at 30 min ([1]; aqueous with cosolvent or surfactant or cyclodextrin, additive No. 5: Soy lecithin): < 10000 µg/mL
solubility at 30 min ([1]; aqueous with cosolvent or surfactant or cyclodextrin, additive No. 6: Polysorbate 80): < 10000 µg/mL
solubility at 30 min ([1]; aqueous with cosolvent or surfactant or cyclodextrin, additive No. 7: D-Mannitol): < 10000 µg/mL
solubility at 30 min ([1]; aqueous with cosolvent or surfactant or cyclodextrin, additive No. 9: β-Cyclodextrin): < 10000 µg/mL
solubility at 30 min ([1]; aqueous with cosolvent or surfactant or cyclodextrin, additive No. 10: Maleic acid): < 10000 µg/mL
solubility at 30 min ([1]; aqueous with cosolvent or surfactant or cyclodextrin, additive No. 12: Calcium bromide): < 10000 µg/mL
solubility at 30 min ([1]; aqueous with cosolvent or surfactant or cyclodextrin, additive No. 13: Ethylene diamine hydrochloride): < 10000 µg/mL
solubility at 30 min ([1]; aqueous with cosolvent or surfactant or cyclodextrin, additive No. 14: Tris): < 10000 µg/mL
solubility at 30 min ([1]; aqueous with cosolvent or surfactant or cyclodextrin, additive No. 16: Nicotinic amide): < 10000 µg/mL
solubility at 30 min ([1]; aqueous with cosolvent or surfactant or cyclodextrin, additive No. 17: Capric acid): < 10000 µg/mL
solubility at 30 min ([1]; oil or lipid, additive No. 11: Ethyl oleate): < 10000 µg/mL
solubility at 30 min ([1]; oil or lipid, additive No. 21: Squalane): < 10000 µg/mL
solubility at 30 min ([1]; oil or lipid, additive No. 22: Medium-chain triglyceride): < 10000 µg/mL
solubility at 30 min ([1]; oil or lipid, additive No. 46: Sesame oil): 1000 to 10000 µg/mL
solubility at 30 min ([1]; oil or lipid, additive No. 47: Castor oil): 1000 to 10000 µg/mL
solubility at 30 min ([1]; oil or lipid, additive No. 49: Arachis oil): 1000 to 10000 µg/mL
solubility at 30 min ([1]; oil or lipid, additive No. 50: Camellia oil): 1000 to 10000 µg/mL
solubility at 30 min ([1]; oil or lipid, additive No. 51: Soybean oil): 1000 to 10000 µg/mL
solubility at 30 min ([1]; oil or lipid, additive No. 52: Olive oil): < 1000 µg/mL
solubility at 30 min ([1]; organic solvent or mixture, additive No. 15: Polyethylene glycol 400): < 10000 µg/mL
solubility at 30 min ([1]; organic solvent or mixture, additive No. 18: Concentrated glycerin): < 10000 µg/mL
solubility at 30 min ([1]; organic solvent or mixture, additive No. 19: Propylene glycol): 30000 to 100000 µg/mL
solubility at 30 min ([1]; organic solvent or mixture, additive No. 20: Lactic acid): > 100000 µg/mL
solubility at 30 min ([1]; organic solvent or mixture, additive No. 30: Benzyl alcohol): > 200000 µg/mL
solubility in water (Solubility in water): less than several
stability in aqueous solutions (in words) [2]: stable

O=C1[C@@H]2[C@H]3CC[C@H](C3)[C@@H]2C(=O)N1C[C@@H]1CCCC[C@H]1CN1CCN(c2nsc3ccccc23)CC1 [A free form of lurasidone, N-[4-[4-(1,2-benzisothiazol-3-yl)-1-piperazinyl]-(2R,3R)-2,3-tetramethylene-butyl]-(1′R,2′S,3′R,4′S)-2,3-bicyclo[2,2,1]heptane-dicarboxyimide]
Solubility ([1]; additive No. 21: Squalane): <10000 µg/mL
Solubility ([1]; additive No. 22: Medium-chain triglyceride): <10000 µg/mL
Solubility ([1]; additive No. 23: Benzyl benzoate): <10000 µg/mL
Solubility ([1]; additive No. 24: Anhydrous ethanol): <10000 µg/mL
Solubility ([1]; additive No. 25: Sorbitan sesquioleate): <10000 µg/mL
Solubility ([1]; additive No. 26: 1,3-Butanediol): <10000 µg/mL
Solubility ([1]; additive No. 27: Dipropylene glycol): <10000 µg/mL
Solubility ([1]; additive No. 28: Triethyleneglycol): <10000 µg/mL
Solubility ([1]; additive No. 29: Isopropyl alcohol): <10000 µg/mL
Solubility ([1]; additive No. 32: Isopropyl myristate): <10000 µg/mL
Solubility ([1]; additive No. 34: Monoethanolamine): <10000 µg/mL
Solubility ([1]; additive No. 35: Diethanolamine): <10000 µg/mL
Solubility ([1]; additive No. 36: Triethanolamine): <10000 µg/mL
Solubility ([1]; additive No. 37: Liquid paraffin): <10000 µg/mL
Solubility ([1]; additive No. 38: Toluene): >50000 µg/mL
Solubility ([1]; additive No. 41: N-Methyl-2-pyrrolidone): >50000 µg/mL
Solubility ([1]; additive No. 42: Glycol salicylate): <10000 µg/mL
Solubility ([1]; additive No. 44: Triacetin): <10000 µg/mL
Solubility ([1]; additive No. 46: Sesame oil): <10000 µg/mL
Solubility ([1]; additive No. 47: Castor oil): <10000 µg/mL
Solubility ([1]; additive No. 49: Arachis oil): <10000 µg/mL
Solubility ([1]; additive No. 50: Camellia oil): <10000 µg/mL
Solubility ([1]; additive No. 51: Soybean oil): <10000 µg/mL
Solubility ([1]; additive No. 52: Olive oil): <10000 µg/mL
